# Read-outs that look alike come from different tables or passages of the source.
# How the values were obtained:
# in vitro = test: in vitro; set-up: WST-8 cell viability assay in HepG2 cells; conditions: human, hepg2 cells; read-out: IC50
# Method: Cells were regularly passed to maintain exponential growth. HepG2 cells were sowed by 1.0 × 10^4 cells for each well in 96-well plate and cultured at 37 °C under 5% CO2 in air for 24 h. The cells were treated with a solution of test compounds in DMSO at various concentration and incubated at 37 °C under 5% CO2 in air for 24 h. After that, the WST-8 (Dojindo) cell proliferation assay was used. Cell viability was indicated as a percentage of the negative control (cells treated with DMSO only) and that value was fixed at 100%.
# [1] = tested on: T1, E. faecium(VRE) ATCC 51858; test: microbe, parasite or virus in culture; set-up: CLSI broth microdilution MIC in MHB-II, single trial; conditions: Enterococcus faecium, 18 h
# T1 construct: ATCC 51858 (VRE)
# Method: (§1) MICs were determined by a microdilution broth method as recommended by the CLSI with MHB-II. For MICs of stable analogues, a 2-fold dilution of each compound was prepared in DMSO at 100-fold of the final concentration. The strains were inoculated with 5 × 10^5 cfu/mL in 96-well plates (each 100 μL/well), and 1 μL of DMSO solutions of the samples were added (contained less than 1% DMSO). The plates were incubated at 37 °C for 18 h and then MICs were determined. MICs of stable analogues in Table 1 were the highest value in three trials. MICs in Supplementary Table 1 were determined in one trial.
# E. faecium ATCC 35667 = tested on: T2, E. faecium ATCC 35667; test: microbe, parasite or virus in culture; set-up: CLSI broth microdilution MIC in MHB-II, single trial; conditions: Enterococcus faecium, ATCC35667, 18 h
# T2 construct: ATCC 35667
# Method: as §1
# [2] = tested on: T3, E. faecium(VRE) ATCC 51559; test: microbe, parasite or virus in culture; set-up: CLSI broth microdilution MIC in MHB-II, single trial; conditions: Enterococcus faecium, 18 h
# T3 construct: ATCC 51559 (VRE)
# Method: as §1
# [3] = tested on: T4, Staphylococcus aureus MRSA JE2; test: microbe, parasite or virus in culture; set-up: CLSI broth microdilution MIC in MHB-II, single trial; conditions: 18 h
# T4 construct: JE2 (MRSA)
# Method: as §1
# [4] = tested on: T5, E. faecalis(VRE) ATCC 51299; test: microbe, parasite or virus in culture; set-up: CLSI broth microdilution MIC in MHB-II, single trial; conditions: Enterococcus faecalis, 18 h
# T5 construct: ATCC 51299 (VRE)
# Method: as §1
# S. aureus ATCC 29213 = tested on: T6, S. aureus ATCC 29213; test: microbe, parasite or virus in culture; set-up: CLSI broth microdilution MIC in MHB-II, single trial; conditions: Staphylococcus aureus, ATCC29213, 18 h
# T6 construct: ATCC 29213
# Method: as §1
# Enterococcus faecalis 30 = tested on: T7, Enterococcus faecalis 30; test: microbe, parasite or virus in culture; set-up: CLSI broth microdilution MIC in MHB-II; conditions: Enterococcus faecalis, 30, 18 h, read-out: MIC
# T7 construct: 30
# Method: as §1
# Enterococcus faecium 11 = tested on: T8, Enterococcus faecium 11; test: microbe, parasite or virus in culture; set-up: CLSI broth microdilution MIC in MHB-II; conditions: Enterococcus faecium, 11, 18 h, read-out: MIC
# T8 construct: 11
# Method: as §1
# Enterococcus faecium 10 = tested on: T9, Enterococcus faecium 10; test: microbe, parasite or virus in culture; set-up: CLSI broth microdilution MIC in MHB-II; conditions: Enterococcus faecium, 10, 18 h, read-out: MIC
# T9 construct: 10
# Method: as §1
# Enterococcus faecalis 24 = tested on: T10, Enterococcus faecalis 24; test: microbe, parasite or virus in culture; set-up: CLSI broth microdilution MIC in MHB-II; conditions: Enterococcus faecalis, 24, 18 h, read-out: MIC
# T10 construct: 24
# Method: as §1
# MraYSA (S. aureus MraY) = MraYSA (S. aureus MraY) (Staphylococcus aureus, UniProt Q2FZ93); test: fluorescence assay of dansylated lipid I formation; type: biochemical
# Sequence of MraYSA (S. aureus MraY) (Q2FZ93 whole entry): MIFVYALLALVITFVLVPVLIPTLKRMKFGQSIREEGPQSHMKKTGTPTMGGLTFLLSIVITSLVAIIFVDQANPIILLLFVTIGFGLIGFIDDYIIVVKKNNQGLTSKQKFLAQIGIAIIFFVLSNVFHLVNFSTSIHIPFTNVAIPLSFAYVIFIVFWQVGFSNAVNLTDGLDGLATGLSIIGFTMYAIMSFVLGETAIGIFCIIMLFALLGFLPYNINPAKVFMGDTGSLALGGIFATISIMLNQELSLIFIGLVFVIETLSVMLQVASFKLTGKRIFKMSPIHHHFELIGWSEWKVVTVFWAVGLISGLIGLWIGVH
smiles,measurement,setting,value
"CCCCCCCCCCCCCCCC(=O)N[C@@H](CCCNC(=N)N)C(=O)Nc1ccc(CN[C@H](C(=O)O)[C@H](O[C@@H]2O[C@H](CN)[C@@H](O)[C@H]2O)[C@H]2O[C@@H](n3ccc(=O)[nH]c3=O)[C@H](O)[C@@H]2O)cc1 [compound 7, analogue 7]",CC50 at 24 h,in vitro,25 µM
same,MIC,[1]; read-out: 7 MIC,2 mg/L
same,MIC,E. faecium ATCC 35667; read-out: 7 MIC,0.5 mg/L
same,MIC,[2]; read-out: 7 MIC,0.5 mg/L
same,MIC,[3]; read-out: 7 MIC,1 mg/L
same,MIC,[4]; read-out: 7 MIC,0.5 mg/L
same,MIC,S. aureus ATCC 29213; read-out: 7 MIC,1 mg/L
same,MIC,Enterococcus faecalis 30,0.25 mg/L
same,MIC,Enterococcus faecium 11,2 mg/L
same,MIC,Enterococcus faecium 10,1 mg/L
same,MIC,Enterococcus faecalis 24,0.13 mg/L
same,IC50,MraYSA (S. aureus MraY),0.0017 µM
"CCCCCCCCCCCCCCCC(=O)N[C@@H](CCCCN)C(=O)Nc1cccc(CN[C@H](C(=O)O)[C@H](O[C@@H]2O[C@H](CN)[C@@H](O)[C@H]2O)[C@H]2O[C@@H](n3ccc(=O)[nH]c3=O)[C@H](O)[C@@H]2O)c1 [compound 6, analogue 6]",CC50 at 24 h,in vitro,16 µM
same,MIC,[1]; read-out: 6 MIC,2 mg/L
same,MIC,E. faecium ATCC 35667; read-out: 6 MIC,0.5 mg/L
same,MIC,[2]; read-out: 6 MIC,1 mg/L
same,MIC,[3]; read-out: 6 MIC,1 mg/L
same,MIC,[4]; read-out: 6 MIC,0.5 mg/L
same,MIC,S. aureus ATCC 29213; read-out: 6 MIC,1 mg/L
same,MIC,Enterococcus faecalis 30,0.5 mg/L
same,MIC,Enterococcus faecium 11,1 mg/L
same,MIC,Enterococcus faecium 10,1 mg/L
same,MIC,Enterococcus faecalis 24,0.5 mg/L
same,IC50,MraYSA (S. aureus MraY),0.0037 µM
"CCCCCCCCCCCCCCCC(=O)N[C@@H](CCCNC(=N)N)C(=O)Nc1cccc(CN[C@H](C(=O)O)[C@H](O[C@@H]2O[C@H](CN)[C@@H](O)[C@H]2O)[C@H]2O[C@@H](n3ccc(=O)[nH]c3=O)[C@H](O)[C@@H]2O)c1 [compound 8, analogue 8]",CC50 at 24 h,in vitro,23 µM
same,MIC,[1]; read-out: 8 MIC,2 mg/L
same,MIC,E. faecium ATCC 35667; read-out: 8 MIC,0.5 mg/L
same,MIC,[2]; read-out: 8 MIC,1 mg/L
same,MIC,[3]; read-out: 8 MIC,2 mg/L
same,MIC,[4]; read-out: 8 MIC,1 mg/L
same,MIC,S. aureus ATCC 29213; read-out: 8 MIC,1 mg/L
same,MIC,Enterococcus faecalis 30,0.5 mg/L
same,MIC,Enterococcus faecium 11,2 mg/L
same,MIC,Enterococcus faecium 10,1 mg/L
same,MIC,Enterococcus faecalis 24,1 mg/L
same,IC50,MraYSA (S. aureus MraY),0.0018 µM
"CCCCCCCCCCCCCCCC(=O)N[C@@H](CCCNC(=N)N)C(=O)NCc1ccc(CN[C@H](C(=O)O)[C@H](O[C@@H]2O[C@H](CN)[C@@H](O)[C@H]2O)[C@H]2O[C@@H](n3ccc(=O)[nH]c3=O)[C@H](O)[C@@H]2O)cc1 [compound 3, analogue 3]",CC50 at 24 h,in vitro,18 µM
same,MIC,[1]; read-out: 3 MIC,2 mg/L
same,MIC,E. faecium ATCC 35667; read-out: 3 MIC,1 mg/L
same,MIC,[2]; read-out: 3 MIC,0.5 mg/L
same,MIC,[3]; read-out: 3 MIC,1 mg/L
same,MIC,[4]; read-out: 3 MIC,0.5 mg/L
same,MIC,S. aureus ATCC 29213; read-out: 3 MIC,1 mg/L
same,MIC,Enterococcus faecalis 30,0.25 mg/L
same,MIC,Enterococcus faecium 11,1 mg/L
same,MIC,Enterococcus faecium 10,1 mg/L
same,MIC,Enterococcus faecalis 24,0.13 mg/L
same,IC50,MraYSA (S. aureus MraY),0.004 µM
"CCCCCCCCCCCCCCCC(=O)N[C@@H](CCCCN)C(=O)Nc1ccc(CN[C@H](C(=O)O)[C@H](O[C@@H]2O[C@H](CN)[C@@H](O)[C@H]2O)[C@H]2O[C@@H](n3ccc(=O)[nH]c3=O)[C@H](O)[C@@H]2O)cc1 [compound 5, analogue 5]",CC50 at 24 h,in vitro,22 µM
same,MIC,[1]; read-out: 5 MIC,1 mg/L
same,MIC,E. faecium ATCC 35667; read-out: 5 MIC,0.25 mg/L
same,MIC,[2]; read-out: 5 MIC,0.25 mg/L
same,MIC,[3]; read-out: 5 MIC,1 mg/L
same,MIC,[4]; read-out: 5 MIC,0.25 mg/L
same,MIC,S. aureus ATCC 29213; read-out: 5 MIC,0.5 mg/L
same,MIC,Enterococcus faecalis 30,0.13 mg/L
same,MIC,Enterococcus faecium 11,0.5 mg/L
same,MIC,Enterococcus faecium 10,0.5 mg/L
same,MIC,Enterococcus faecalis 24,0.25 mg/L
same,IC50,MraYSA (S. aureus MraY),0.0031 µM
C[C@H]1COc2c(N3CCN(C)CC3)c(F)cc3c(=O)c(C(=O)O)cn1c23 [levofloxacin],MIC,[1]; read-out: levofloxacin MIC,4 mg/L
same,MIC,E. faecium ATCC 35667; read-out: levofloxacin MIC,4 mg/L
same,MIC,[2]; read-out: levofloxacin MIC,16 mg/L
same,MIC,[3]; read-out: levofloxacin MIC,8 mg/L
same,MIC,[4]; read-out: levofloxacin MIC,1 mg/L
same,MIC,S. aureus ATCC 29213; read-out: levofloxacin MIC,0.13 mg/L
same,MIC,Enterococcus faecalis 30,1 mg/L
same,MIC,Enterococcus faecium 11,> 32 mg/L
same,MIC,Enterococcus faecium 10,> 32 mg/L
same,MIC,Enterococcus faecalis 24,1 mg/L
"CCCCCCCCCCCCCCCC(=O)N[C@@H](CCCCN)C(=O)NCc1cccc(CN[C@H](C(=O)O)[C@H](O[C@@H]2O[C@H](CN)[C@@H](O)[C@H]2O)[C@H]2O[C@@H](n3ccc(=O)[nH]c3=O)[C@H](O)[C@@H]2O)c1 [compound 2, analogue 2]",CC50 at 24 h,in vitro,16 µM
same,MIC,[1]; read-out: 2 MIC,2 mg/L
same,MIC,E. faecium ATCC 35667; read-out: 2 MIC,0.5 mg/L
same,MIC,[2]; read-out: 2 MIC,0.5 mg/L
same,MIC,[3]; read-out: 2 MIC,1 mg/L
same,MIC,[4]; read-out: 2 MIC,0.5 mg/L
same,MIC,S. aureus ATCC 29213; read-out: 2 MIC,1 mg/L
same,MIC,Enterococcus faecalis 30,0.25 mg/L
same,MIC,Enterococcus faecium 11,1 mg/L
same,MIC,Enterococcus faecium 10,1 mg/L
same,MIC,Enterococcus faecalis 24,0.25 mg/L
same,IC50,MraYSA (S. aureus MraY),0.0059 µM
"CCCCCCCCCCCCCCCC(=O)N[C@@H](CCCNC(=N)N)C(=O)NCc1cccc(CN[C@H](C(=O)O)[C@H](O[C@@H]2O[C@H](CN)[C@@H](O)[C@H]2O)[C@H]2O[C@@H](n3ccc(=O)[nH]c3=O)[C@H](O)[C@@H]2O)c1 [compound 4, analogue 4]",CC50 at 24 h,in vitro,19 µM
same,MIC,[1]; read-out: 4 MIC,2 mg/L
same,MIC,E. faecium ATCC 35667; read-out: 4 MIC,0.5 mg/L
same,MIC,[2]; read-out: 4 MIC,1 mg/L
same,MIC,[3]; read-out: 4 MIC,2 mg/L
same,MIC,[4]; read-out: 4 MIC,0.25 mg/L
same,MIC,S. aureus ATCC 29213; read-out: 4 MIC,1 mg/L
same,MIC,Enterococcus faecalis 30,0.25 mg/L
same,MIC,Enterococcus faecium 11,1 mg/L
same,MIC,Enterococcus faecium 10,1 mg/L
same,MIC,Enterococcus faecalis 24,0.13 mg/L
same,IC50,MraYSA (S. aureus MraY),0.005 µM

# — article PMC11178787, “Development of a natural product optimization strategy for inhibitors against MraY, a promising antibacterial target” (Nature Communications, 2024)
